Results on three substances are retold here after patent publication US10842851B2, “Relaxin for treating patients afflicted of impaired glucose tolerance” (Immundiagnostik AG, priority 2012, dated 2020).

Data set [1] relates to patients having type II diabetes or impaired glucose tolerance. Nature of the data set: HOMA-index in human patients under i.v. H2 relaxin. It is filed as in vivo. As to conditions: i.v. over 16 hrs. An excerpt: In a study approved by the local ethical committee (Charité, Berlin, Germany) twelve patients (n=12) having type II diabetes or impaired glucose tolerance received intravenous synthetic H2 relaxin over a period of 16 hrs followed by a 24-hr follow-up. The anti-diabetic treatment of those patients was not varied. The improved HOMA-2 model used was in the present example because it reflects better human physiology. A HOMA of >2 indicates a potential insulin resistance; a HOMA of >2.5 beginning insulin resistance and a HOMA>5.0 is an average value of insulin resistance in untreated patients with manifest type-2 diabetes.
Of those twelve patients in this study two patients received sequential treatment for 8 hours each with dosages equivalent to 10 and 30 μg/kg of subject body weight per day, 6 patients received sequential treatment with 240 and 480 μg/kg of subject body weight per day, and another 4 patients received a constant infusion of 960 μg/kg of subject body weight per day. This was completed by follow-up determinations of glucose and insulin levels in serum 24 hours post termination of the i.v. relaxin administration.

Data set [2] concerns Zucker Diabetic Fatty rats. Put plainly: HOMA-index in ZDF rats under sc relaxin. In kind it is in vivo, rat. As to conditions: 10-week old male ZDF rats, sc 500 μg/kg per day, within the 48-hour period. An excerpt: The homeostatic model assessment (HOMA=Insulin (μU/mi)×Glucose (mmol/l)/22.5) allows a quantification of insulin resistance and beta-cell function on the basis of mathematical equations describing glucose regulation as a feedback loop (see Matthews D R at al. Diabetologia 1985; 28(7): 412-9); Turner R C et al, Metabolism 1985; 28 (11): 1086-96). In order to assess the effects of relaxin on a diabetic metabolism we determined the HOMA of 10-week old male Zucker Diabetic Fatty rats (#25) pre-, during and post subcutanous administration of porcine relaxin (500 μg/kg rat per day). Thus, we determined the glucose and insulin levels in serum of 25 ZDF rats prior and 48 hours after sc administration of porcine relaxin. This was completed by follow-up determinations of glucose and insulin concentrations in serum 48 hours post the termination of the administration of porcine relaxin.

Data set [3] has as its system rat insulinoma cells (INS-1 cells). Put plainly: Insulin secretion of INS-1 cells under sustained glucose concentrations (rat insulin ELISA). In kind it is cell-based. The procedure:
In a further study we examined whether porcine relaxin has any effect on insulin expression and/or secretory capacity of pancreatic beta-cells. 2.5×10^5 rat insulinoma cells (INS-1 cells; see Mergler S et al, in Cellular Signalling (2008), doi: 10.1016/j.cellsig.2008.08.015) were plated in a 24-well plate and grown for three days in […] medium with supplements (Moore G. E. et. al., Culture of Normal Human Leukoctyes.” JAMA, v. 199, 519-524 (1967). On the day of the experiment, the medium was removed, and the INS-1 cells were washed three times and then preincubated for 30 min in KRB (Krebs-Ringer buffer: 115 mM NaCl, 5.9 mM KCl, 1.2 mM MgCl2, 1.2 mM NaH2PO4, 1.2 mM Na2PO4, 2.5 mM CaCl2, 25 mM NaHCO3, pH 7.4) comprising 0.5% BSA and 3.3 mM glucose. Cells were washed again with phosphate buffered saline (PBS: 137 mM NaCl, 2.7 mM KCl, 12 mM phosphate, pH 7.4) and incubated with different physiological and pathological glucose concentrations (2.8, 5.6, 11.2, 16.7, 33.2 mmol/L) for 48 hrs. After another washing, the amounts of insulin secreted by the INS-1 cells into the supernatant over another 48 hrs under the very same glucose conditions were determined using a rat insulin ELISA kit (units: ng/dl) (Immundiagnostik AG, Bensheim, Del.—Article No. KA80INSRT1). […]

A short description of data set [4]: Effect of relaxin on glucose levels in blood. As to conditions: in vivo.
For data set [5] the following is noted: cited from earlier work.
For data set [6] the following is noted: over the entire dose range, previous pilot study (Dschietzig et al. 2009); cited from earlier work.

In the case of human relaxin-2 (H2 relaxin), the “homeostatic model assessment (HOMA) in each diabetic patient (FIG. 2A)” value in data set [1] (10 to 960 μg/kg per day, diabetic patients) is recorded as “improved”. The “homeostatic model assessment (HOMA) in non-diabetic subjects” value in data set [1] (subjects having an initial HOMA of less than 2.0) is “no or little impact”.

As to porcine relaxin-1 [porcine RLX], in data set [2], the “HOMA value of each animal (FIG. 1A)” value is recorded as “reduced HOMA value”.

Turning to relaxin, the “insulin secretion (as determined in cell supernatants)” value in data set [3] (10 nM porcine relaxin-1, baseline and high-glucose conditions, secretion period of 48 hours, INS-1 cells) was “increased insulin secretion”. Further, the “high glucose-induced down-regulation of insulin expression and/or secretory capacity” value in data set [3] (10 nmol/L porcine relaxin-1, cultured rat INS-1 cells, n=6, P<0.05 vs. control) is on record as “efficient in preventing”. For the same substance, in data set [4], the “direct effect on glucose levels in blood” value is “not found any direct effect”. Further, the half-life in vivo result in data set [5] is given as “about two”. Besides, the clinically adverse effects in data set [6] is “no clinically adverse effects were observed”.
